{"source": "patent US10683382B2", "about": "“Copolymer comprising a lignin or lignin derivative and a poly(alkylene oxide) alkyl ether (meth)acrylate, and a hydrogel comprising the copolymer” (AGENCY FOR SCIENCE, TECHNOLOGY AND RESEARCH, priority 2015, dated 2020)", "test_system": "human dermal fibroblasts", "test": "MTT assay, cell viability", "assay_type": "cell-based", "settings": "1, 5, 10 μM; up to 72 hours", "protocol": "MTT assays were performed to assess the metabolic activity of human dermal fibroblasts. Human dermal fibroblasts were seeded in 96-well plates (Costar, USA) at a density of 1×10^4 cells/mL. After 24 hours of incubation, the medium was replaced by the Lig-PEG1, Lig-PEG2, Lig-PEG4, α-CD and P(PEGMA) (Mn=18 000 g/mol) aqueous solutions at concentrations of 10 μM, 5 μM and 1 μM, respectively. The cells were then incubated for 24 hours, 48 hours and 72 hours, respectively. After the designated time intervals, the wells were washed twice with 1×PBS buffer, and 100 μL of freshly prepared MTT (0.5 mg/mL) solution in culture medium was added to each well. The MTT medium solution was carefully removed after 3 hours incubation in the incubator. DMSO (100 μL) was then added into each well, and the plate was gently shaken for 10 minutes at room temperature to dissolve all precipitates formed. The absorbance of MTT at 570 nm was monitored by the microplate reader (Genios Tecan, Switzerland). Cell viability was expressed by the ratio of absorbance of the cells incubated with polymer solution to that of the cells incubated with culture medium only.", "data": [{"smiles": "OC[C@H]1O[C@@H]2O[C@H]3[C@H](O)[C@@H](O)[C@@H](O[C@H]4[C@H](O)[C@@H](O)[C@@H](O[C@H]5[C@H](O)[C@@H](O)[C@@H](O[C@H]6[C@H](O)[C@@H](O)[C@@H](O[C@H]7[C@H](O)[C@@H](O)[C@@H](O[C@H]1[C@H](O)[C@H]2O)O[C@@H]7CO)O[C@@H]6CO)O[C@@H]5CO)O[C@@H]4CO)O[C@@H]3CO", "note": "[α-CD, α-cyclodextrin]", "values": [{"measurement": "cytotoxicity", "result": "no cytotoxicity"}]}]}
